# Reference: ChEMBL document CHEMBL1126400, “Synthesis and biological activity of the platelet-activating factor antagonist ()-trans-2-(3-methoxy-4-phenylsulfonylethoxy-5-n-propylsulfonylphenyl)-5-(3,4,5-trimethoxyphenyl)tetrahydrofuran (L-671,284) and its analogs” (Bioorg Med Chem Lett, 1992)
# How the values were obtained:
# [1] = target: T1, Platelet-activating factor receptor (Homo sapiens, UniProt P25105); test: In vitro inhibition of [3H]-C18 PAF binding to human platelet membrane Platelet activating factor receptor.; parameters: concentration or dose not given beside the values; conditions: concentration not given here
# [2] = target: Platelet-activating factor receptor (Rattus norvegicus) (UniProt P46002); test: In vivo inhibition of 10 nmole/kg PAF-induced plasma N-acetyl-beta-glucosaminidase (NAGA) after oral administration to rats; assay type: organism-based; parameters: concentration or dose not given beside the values
# [3] = target: Platelet-activating factor receptor (Rattus norvegicus) (UniProt P46002); test: In vivo inhibition of 10 nmole/kg PAF-induced hemoconcentration was determined at 1 mg/kg peroral administration; assay type: functional, organism-based; parameters: dose 1 mg/kg
# Rattus norvegicus [4] = test: In vivo inhibition of 10 nmole/kg PAF-induced hemoconcentration was determined at 1 mg/kg peroral administration in rats; assay type: functional; conditions: route oral
# [5] = target: T1, Platelet-activating factor receptor; test: In vitro inhibition of [3H]-C18 PAF binding to human platelet membrane Platelet activating factor receptor was determined
# Homo sapiens = species on record: Homo sapiens; test: Inhibitory activity of compound was determined by 3E-7M PAF-induced degranulation of PAFas measured by myeloperoxidase secretion; assay type: functional
# [6] = target: T1, Platelet-activating factor receptor; test: Compound was evaluated for inhibition of binding of [3H]-C18 PAF to human platelet membrane Platelet activating factor receptor
# [7] = target: T1, Platelet-activating factor receptor; test: Compound was evaluated for inhibitory activity of binding of [3H]-C18 PAF to human platelet membrane Platelet activating factor receptor
# Rattus norvegicus [8] = test: Drop in blood pressure was observed after 15 minutes of intravenous administration of 0.2 mg/kg compound; assay type: functional
# Rattus norvegicus [9] = test: Compound inhibits 10 nmole/kg PAF-induced hemoconcentration and plasma N-acetyl-beta-glucosaminidase increase in male rats; assay type: functional
# Rattus norvegicus [10] = test: Compound inhibits 10 nmole/kg PAF-induced hemoconcentration and plasma N-acetyl-beta-glucosaminidase increase in female rats; assay type: functional
# Sequence of Platelet-activating factor receptor (Rattus norvegicus) (P46002 whole entry): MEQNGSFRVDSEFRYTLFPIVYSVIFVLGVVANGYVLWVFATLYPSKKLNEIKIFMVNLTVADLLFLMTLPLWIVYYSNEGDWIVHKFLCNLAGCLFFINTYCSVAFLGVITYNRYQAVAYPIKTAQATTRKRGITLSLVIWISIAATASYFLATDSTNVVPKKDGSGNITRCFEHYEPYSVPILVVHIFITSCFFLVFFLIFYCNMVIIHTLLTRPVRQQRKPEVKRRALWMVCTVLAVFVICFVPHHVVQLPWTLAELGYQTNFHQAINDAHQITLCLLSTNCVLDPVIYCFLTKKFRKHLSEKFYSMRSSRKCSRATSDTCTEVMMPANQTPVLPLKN
# T1 sequence (P25105 whole entry): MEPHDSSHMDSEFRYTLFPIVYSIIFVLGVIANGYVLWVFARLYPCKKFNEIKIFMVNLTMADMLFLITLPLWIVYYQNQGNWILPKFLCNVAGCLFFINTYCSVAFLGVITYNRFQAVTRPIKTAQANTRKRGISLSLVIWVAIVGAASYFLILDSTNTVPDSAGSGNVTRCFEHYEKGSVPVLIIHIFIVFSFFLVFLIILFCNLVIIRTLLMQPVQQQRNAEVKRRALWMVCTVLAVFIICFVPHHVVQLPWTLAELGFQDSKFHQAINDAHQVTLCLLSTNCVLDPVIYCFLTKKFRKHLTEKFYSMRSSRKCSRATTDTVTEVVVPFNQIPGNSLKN
SMILES,inhibition [1] [%],inhibition [2] [%],inhibition [3] [%],other results
CCCS(=O)(=O)c1cc(C2CC[C@@H](c3cc(OC)c(OC)c(OC)c3)O2)cc(OC)c1OCCS(=O)(=O)c1ccc(C#N)cc1 (some centres not stated),69,1,0,
CCCS(=O)(=O)c1cc(C2CC[C@@H](c3cc(OC)c(OC)c(OC)c3)O2)cc(OC)c1OCC[S+]([O-])c1ccc(O)cc1 (some centres not stated),73,44,,inhibition in vivo at 1 mg/kg (Rattus norvegicus [4]): 25%
CCCS(=O)(=O)c1cc(C2CC[C@@H](c3cc(OC)c(OC)c(OC)c3)O2)cc(OC)c1OCCSc1ncc[nH]1 (some centres not stated),60,13,11,
"CCCOc1c(OC)cc([C@H]2CC[C@H](c3cc(OC)c(OC)c(OC)c3)O2)cc1S(C)(=O)=O (single isomer, unassigned)",,,,Ki [5]: 14.3 nM
CCCS(=O)(=O)c1cc(C2CC[C@@H](c3cc(OC)c(OC)c(OC)c3)O2)cc(OC)c1OCCS(=O)(=O)c1ccncc1 (some centres not stated),45,5,0,
CCCS(=O)(=O)c1cc(C2CC[C@@H](c3cc(OC)c(OC)c(OC)c3)O2)cc(OC)c1OCC[S+]([O-])c1ccc(C#N)cc1 (some centres not stated),74,0,5,
CCCS(=O)(=O)c1cc(C2CC[C@@H](c3cc(OC)c(OC)c(OC)c3)O2)cc(OC)c1OCCS(=O)(=O)c1ccc(N)cc1 (some centres not stated),41,,,
CCCS(=O)(=O)c1cc(C2CC[C@@H](c3cc(OC)c(OC)c(OC)c3)O2)cc(OC)c1OCCS(=O)(=O)c1ccc(O)cc1 (some centres not stated),88,13,,inhibition in vivo at 1 mg/kg (Rattus norvegicus [4]): 7%
CCCS(=O)(=O)c1cc(C2CC[C@@H](c3cc(OC)c(OC)c(OC)c3)O2)cc(OC)c1OCC[S+]([O-])c1ccc(N)cc1 (some centres not stated),0,,,
CCCS(=O)(=O)c1cc(C2CC[C@@H](c3cc(OC)c(OC)c(OC)c3)O2)cc(OC)c1OCCS(=O)(=O)c1ccccc1 (some centres not stated),72,94,94,IC50 (Homo sapiens): 0.78 nM; Ki [6]: 1 nM; IC50 [7]: 1 nM; Decrease in blood pressure (Rattus norvegicus [8]): 79 mmHg; ED50 (Rattus norvegicus [9]): 0.26 mg/kg; ED50 (Rattus norvegicus [10]): 0.22 mg/kg

# Second part, led by results:
inhibition [1] [%],inhibition [2] [%],inhibition [3] [%],SMILES,other results
100,75,63,CCCS(=O)(=O)c1cc(C2CC[C@@H](c3cc(OC)c(OC)c(OC)c3)O2)cc(OC)c1OCCSc1ccc(O)cc1 (some centres not stated),
70,32,26,CCCS(=O)(=O)c1cc(C2CC[C@@H](c3cc(OC)c(OC)c(OC)c3)O2)cc(OC)c1OCCSc1ccc(C(N)=O)cc1 (some centres not stated),
57,,,CCCS(=O)(=O)c1cc(C2CC[C@@H](c3cc(OC)c(OC)c(OC)c3)O2)cc(OC)c1OCCSc1ccccc1N (some centres not stated),
38,23,11,CCCS(=O)(=O)c1cc(C2CC[C@@H](c3cc(OC)c(OC)c(OC)c3)O2)cc(OC)c1OCCSc1ccc(C(=O)O)cc1 (some centres not stated),
60,58,,CCCS(=O)(=O)c1cc(C2CC[C@@H](c3cc(OC)c(OC)c(OC)c3)O2)cc(OC)c1OCCSc1ccc(N)cc1 (some centres not stated),inhibition in vivo at 1 mg/kg (Rattus norvegicus [4]): 56%
80,4,,CCCS(=O)(=O)c1cc(C2CC[C@@H](c3cc(OC)c(OC)c(OC)c3)O2)cc(OC)c1OCCSc1cccc(N)c1 (some centres not stated),inhibition in vivo at 1 mg/kg (Rattus norvegicus [4]): 7%
58,,,CCCS(=O)(=O)c1cc(C2CC[C@@H](c3cc(OC)c(OC)c(OC)c3)O2)cc(OC)c1OCCSc1ccccc1O (some centres not stated),
93,39,33,CCCS(=O)(=O)c1cc(C2CC[C@@H](c3cc(OC)c(OC)c(OC)c3)O2)cc(OC)c1OCCSc1ccc(C#N)cc1 (some centres not stated),
73,15,15,CCCS(=O)(=O)c1cc(C2CC[C@@H](c3cc(OC)c(OC)c(OC)c3)O2)cc(OC)c1OCCSc1ccncc1 (some centres not stated),
61,29,27,CCCS(=O)(=O)c1cc(C2CC[C@@H](c3cc(OC)c(OC)c(OC)c3)O2)cc(OC)c1OCCSc1cccc(O)c1 (some centres not stated),
66,57,66,CCCS(=O)(=O)c1cc(C2CC[C@@H](c3cc(OC)c(OC)c(OC)c3)O2)cc(OC)c1OCCSc1ccc(N(C)C)cc1 (some centres not stated),
93,84,95,CCCS(=O)(=O)c1cc(C2CC[C@@H](c3cc(OC)c(OC)c(OC)c3)O2)cc(OC)c1OCCSc1ccccc1 (some centres not stated),
